The text below walks through data of patent US8420676B2, “Oxazolidinone derivatives” (Dong-A Pharmaceuticals Co. Ltd., priority 2003, dated 2013).

Each structure is given as a SMILES string. Values after ≈ are worked out from the molar mass of the structure shown.

Assay [1] relates to vancomycin resistant Enterococci (VRE). Kind of assay: Assay for in vitro antibacterial activity, agar dilution (VRE). The note with it: Enterococcus, read-out: Minimum Inhibitory Concentration (MIC50) VRE. Background: In agar dilution the substance is mixed into plates at graded concentrations.
Assay [2] deals with methicillin resistant Staphylococcus aureus (MRSA). Briefly: Assay for in vitro antibacterial activity, agar dilution (MRSA). The conditions noted are these: read-out: Minimum Inhibitory Concentration (MIC50) MRSA.

For `Cc1nc(-c2ccc(-c3ccc(N4C[C@H](COC(=O)CN)OC4=O)cc3F)cc2)oc1C` [Compound 23, (R)-3-(4-(4-(4,5-dimethyloxazol-2-yl)phenyl)-3-fluorophenyl)-5-glycyloxymethyl oxazolidin-2-one trifluoroacetic acid], the MIC50 in assay [1] and in assay [2] was 2 µg/mL (≈ 4.55 µM) throughout.
For `Cn1nnc(-c2ccc(-c3ccc(N4C[C@H](COP(=O)(O)O)OC4=O)cc3F)cn2)n1` [Compound 72, mono-[(R)-[3-(4-(2-(2-methyltetrazol-5-yl)pyridin-5-yl)-3-fluorophenyl)-2-oxo-5-oxazolidinyl]methyl]phosphate], the MIC50 in assay [1] and in assay [2] was 32 µg/mL (≈ 71.1 µM) each time.
For `CC(=O)NC[C@H]1CN(c2ccc(-c3ccc(N4CC(COC(=O)CN)CC4=O)nc3)c(F)c2)C(=O)O1` (stereo partly drawn) [Compound 1, (S)-3-(4-(2-(2-oxo-4-glycyloxymethylpylolidin-1-yl)pyridin-5-yl)-3-fluorophenyl)-2-oxo-5-oxazolidinylmethyl acetamide trifluoroacetic acid], the MIC50 in assay [1] is 0.25 µg/mL (≈ 0.501 µM); in assay [2], 1 µg/mL (≈ 2 µM).
As to `Cn1nnnc1-c1ccc(-c2ccc(N3C[C@H](COP(=O)(O)O)OC3=O)cc2F)cn1` [Compound 73, mono-[(R)-[3-(4-(2-(1-methyltetrazol-5-yl)pyridin-5-yl)-3-fluorophenyl)-2-oxo-5-oxazolidinyl]methyl]phosphate], the MIC50 in assay [1] and in assay [2] was 32 µg/mL (≈ 71.1 µM) throughout.
Turning to `CC(=O)NC[C@H]1CN(c2ccc(-c3ccc(-c4nc(CO)cs4)cc3)c(F)c2)C(=O)O1` [Compound 28, (S)-3-(4-(4-(4-hydroxymethylthiazol-2-yl)phenyl)-3-fluorophenyl)-2-oxo-5-oxazolidinylmethyl acetamide], the MIC50 in assay [1] and in assay [2] was 0.5 µg/mL (≈ 1.13 µM) throughout.
On to `Cn1nnc(-c2ccc(-c3ccc(N4C[C@H](Cn5nccn5)OC4=O)cc3F)cn2)n1` [Compound 8, (R)-3-(4-(2-(2-methyltetrazol-5-yl)pyridin-5-yl)-3-fluorophenyl)-5-([1,2,3]triazol-2-yl)methyl oxazolidin-2-one], for which the MIC50 in assay [1] and in assay [2] was 16 µg/mL (≈ 38 µM) in each case.
Consider `COC[C@H]1CN(c2ccc(-c3ccc(-c4nnn(C)n4)nc3)c(F)c2)C(=O)O1` [Compound 33, (R)-3-(4-(2-(2-methyltetrazol-5-yl)pyridin-5-yl)-3-fluorophenyl)-5-methoxymethyl oxazolidin-2-one], for which the MIC50 in assay [1] and in assay [2] was 2 µg/mL (≈ 5.2 µM) in each case.
For `CNC[C@H]1CN(c2ccc(-c3ccc(-c4nnn(C)n4)nc3)c(F)c2)C(=O)O1` [Compound 41], the figures for the MIC50 in assay [1] and in assay [2] were 8 µg/mL (≈ 20.9 µM) and 4 µg/mL (≈ 10.4 µM), respectively.
`CC(C)[C@H](N)C(=O)OC[C@H]1CN(c2ccc(-c3ccc(-c4nnnn4C)nc3)c(F)c2)C(=O)O1.Cl` [Compound 67, (R)-3-(4-(2-(1-methyltetrazol-5-yl)pyridin-5-yl)-3-fluorophenyl)-5-(L-valyloxy)methyl oxazolidin-2-one hydrochloride]: the figures for the MIC50 in assay [1] and in assay [2] were 0.25 µg/mL and 0.5 µg/mL, respectively.
For `N#CCc1csc(-c2ccc(-c3ccc(N4C[C@H](COC(=O)CN)OC4=O)cc3F)cc2)n1` [Compound 34, (R)-3-(4-(4-(4-cyanomethylthiazol-2-yl)phenyl)-3-fluorophenyl)-5-glycyloxymethyl oxazolidin-2-one trifluoroacetic acid], the MIC50 in assay [1] and in assay [2] was 1 µg/mL (≈ 2.14 µM) each time.
Consider `Cn1nnc(-c2ccc(-c3c(F)cc(N4C[C@H](CO)OC4=O)cc3F)cn2)n1` [Compound 38, (R)-3-(4-(2-(2-methyltetrazol-5-yl)pyridin-5-yl)-3,5-difluorophenyl)-5-hydroxymethyl oxazolidin-2-one], for which the MIC50 in assay [1] is 1 µg/mL (≈ 2.58 µM); in assay [2], 0.5 µg/mL (≈ 1.29 µM).
`Cn1nnc(-c2ccc(-c3ccc(N4C[C@H](CF)OC4=O)cc3F)cn2)n1` [Compound 18, (R)-3-(4-(2-(2-methyltetrazol-5-yl)pyridin-5-yl)-3-fluorophenyl)-5-fluoromethyl oxazolidin-2-one]: the MIC50 was 2 µg/mL (≈ 5.37 µM) in assay [1] and 1 µg/mL (≈ 2.69 µM) in assay [2].
Take `O=C1O[C@@H](Cn2ccnn2)CN1c1ccc(-c2ccc(-n3cncn3)nc2)c(F)c1` [Compound 14, (R)-3-(4-(2-([1,2,4]triazol-1-yl)pyridin-5-yl)-3-fluorophenyl)-5-([1,2,3]triazol-1-yl)methyl oxazolidin-2-one]: the MIC50 in assay [1] and in assay [2] was 0.25 µg/mL (≈ 0.615 µM) throughout.
Consider `CC(=O)NC[C@H]1CN(c2ccc(-c3ccc(C4=NOC(COC(=O)CN)C4)nc3)c(F)c2)C(=O)O1` (stereo partly drawn) [Compound 7, (S)-3-(4-(2-(5-glycyloxymethyl-4,5-dihydroisoxazole-3-yl)pyridin-5-yl)-3-fluorophenyl)-2-oxo-5-oxazolidinylmethyl acetamide trifluoroacetic acid], for which the MIC50 in assay [1] and in assay [2] was 0.5 µg/mL (≈ 1.03 µM) in each case.
For the compound `Cc1nnc(-c2ccc(-c3c(F)cc(N4C[C@H](CO)OC4=O)cc3F)cn2)o1` [Compound 39, (R)-3-(4-(2-(2-methyl-[1,3,4]oxadiazol-5-yl)pyridin-5-yl)-3,5-difluorophenyl)-5-hydroxymethyl oxazolidin-2-one], the MIC50 in assay [1] and in assay [2] was 1 µg/mL (≈ 2.58 µM) each time.
For `N#CCc1csc(-c2ccc(-c3ccc(N4C[C@H](CO)OC4=O)cc3F)cc2)n1` [Compound 32, (R)-3-(4-(4-(4-cyanomethylthiazol-2-yl)phenyl)-3-fluorophenyl)-5-hydroxymethyl oxazolidin-2-one], the figures for the MIC50 in assay [1] and in assay [2] were 1 µg/mL (≈ 2.44 µM) and 0.5 µg/mL (≈ 1.22 µM), respectively.
`CC(=O)NC[C@H]1CN(c2ccc(-c3ccc(-c4cc(COC(=O)CN)on4)nc3)c(F)c2)C(=O)O1` [Compound 3, (S)-3-(4-(2-(5-glycyloxymethylisoxazol-3-yl)pyridin-5-yl)-3-fluorophenyl)-2-oxo-5-oxazolidinylmethyl acetamide trifluoroacetic acid]: the MIC50 in assay [1] and in assay [2] was 0.25 µg/mL (≈ 0.517 µM) in each case.
In the case of `NCC(=O)OC[C@H]1CN(c2ccc(-c3ccc(-n4nccn4)nc3)c(F)c2)C(=O)O1` [Compound 35, (R)-3-(4-(2-([1,2,3]triazol-2-yl)pyridin-5-yl)-3-fluorophenyl)-5-glycyloxymethyl oxazolidin-2-one trifluoroacetic acid], the MIC50 in assay [1] and in assay [2] was 1 µg/mL (≈ 2.42 µM) throughout.
As for `Cn1nnc(-c2ccc(-c3ccc(N4C[C@H](Cn5ccnn5)OC4=O)cc3F)cn2)n1` [Compound 9, (R)-3-(4-(2-(2-methyltetrazol-5-yl)pyridin-5-yl)-3-fluorophenyl)-5-([1,2,3]triazol-1-yl)methyl oxazolidin-2-one], the MIC50 in assay [1] amounted to 0.125 µg/mL (≈ 0.297 µM); in assay [2], 0.25 µg/mL (≈ 0.593 µM).
In the case of `CC(=O)NC[C@H]1CN(c2ccc(-c3ccc(-c4nc(CC#N)cs4)cc3)c(F)c2)C(=O)O1` [Compound 31, (S)-3-(4-(4-(4-cyanomethylthiazol-2-yl)phenyl)-3-fluorophenyl)-2-oxo-5-oxazolidinylmethyl acetamide], the MIC50 in assay [1] and in assay [2] was 0.5 µg/mL (≈ 1.11 µM) each time.
In the case of `Cn1nnnc1-c1ccc(-c2ccc(N3C[C@H](Cn4ccnn4)OC3=O)cc2F)cn1` [Compound 71, (R)-3-(4-(2-(1-methyltetrazol-5-yl)pyridin-5-yl)-3-fluorophenyl)-5-([1,2,3]triazol-1-yl)methyl oxazolidin-2-one], the MIC50 is 0.125 µg/mL (≈ 0.297 µM) in assay [1] and 0.5 µg/mL (≈ 1.19 µM) in assay [2].
For the compound `CC(=O)NC[C@H]1CN(c2ccc(N3CCOCC3)c(F)c2)C(=O)O1` [Zyvox, reference compound], the MIC50 in assay [1] and in assay [2] was 2 µg/mL (≈ 5.93 µM) throughout.
For `O=C1O[C@@H](CO)CN1c1ccc(-c2ccc(-n3nccn3)nc2)c(F)c1` [Compound 29, (R)-3-(4-(2-([1,2,3]triazol-2-yl)pyridin-5-yl)-3-fluorophenyl)-5-hydroxymethyl oxazolidin-2-one], the MIC50 in assay [1] came out at 1 µg/mL (≈ 2.81 µM); in assay [2] it was 0.5 µg/mL (≈ 1.41 µM).
Consider `Cl.NC[C@H]1CN(c2ccc(-c3ccc(-n4ccnc4)nc3)c(F)c2)C(=O)O1` [Compound 19, (S)-3-(4-(2-(imidazole-1-yl)pyridin-5-yl)-3-fluorophenyl)-5-aminomethyl oxazolidin-2-one hydrochloride], for which the MIC50 in assay [1] and in assay [2] was 32 µg/mL throughout.
On to `CC(=O)NC[C@H]1CN(c2ccc(-c3ccc(-n4nccn4)nc3)c(F)c2)C(=O)O1` [Compound 25, (S)-3-(4-(2-([1,2,3]triazol-2-yl)pyridin-5-yl)-3-fluorophenyl)-2-oxo-5-oxazolidinylmethyl acetamide], for which the MIC50 in assay [1] was determined as 0.125 µg/mL (≈ 0.315 µM); in assay [2], 0.25 µg/mL (≈ 0.631 µM).
Consider `O=C1O[C@@H](Cn2ccnn2)CN1c1ccc(-c2ccc(-c3nc(CO)cs3)cc2)c(F)c1` [Compound 36, (R)-3-(4-(4-(4-hydroxymethylthiazol-2-yl)phenyl)-3-fluorophenyl)-5-([1,2,3]triazol-1-yl)methyl oxazolidin-2-one], for which the MIC50 in assay [1] and in assay [2] was 0.5 µg/mL (≈ 1.11 µM) throughout.
With `Cn1nnnc1-c1ccc(-c2ccc(N3C[C@H](CO)OC3=O)cc2F)cn1` [Compound 61, (R)-3-(4-(2-(1-methyltetrazol-5-yl)pyridin-5-yl)-3-fluorophenyl)-5-hydroxymethyl oxazolidin-2-one], the MIC50 worked out at 0.25 µg/mL (≈ 0.675 µM) in assay [1] and 0.5 µg/mL (≈ 1.35 µM) in assay [2].
In the same order, the values of `CC(=O)NC[C@H]1CN(c2ccc(-c3ccc(N4CCC(OC(=O)CN)C4=O)nc3)c(F)c2)C(=O)O1` (stereo partly drawn) [Compound 5, (S)-3-(4-(2-(2-oxo-3-glycyloxypyrrolidine-1-yl)pyridin-5-yl)-3-fluorophenyl)-2-oxo-5-oxazolidinylmethyl acetamide trifluoroacetic acid] are 0.25 µg/mL (≈ 0.515 µM) and 0.5 µg/mL (≈ 1.03 µM).
Consider `Cc1nnc(-c2ccc(-c3ccc(N4C[C@H](Cn5ccnn5)OC4=O)cc3F)cn2)o1` [Compound 13, (R)-3-(4-(2-(2-methyl-[1,3,4]oxadiazol-5-yl)pyridin-5-yl)-3-fluorophenyl)-5-([1,2,3]triazol-1-yl)methyl oxazolidin-2-one], for which the MIC50 in assay [1] and in assay [2] was 0.25 µg/mL (≈ 0.593 µM) in each case.
